Legend:
Test in all cases: biochemical
Parameters in all cases: Kinase selectivity panel of 81 human kinases, ADP-Glo or HTRF, per cent inhibition at 1 uM
[1] = target: T1, MRCKβ (Homo sapiens, UniProt Q9Y5S2)
T1 construct: gene CDC42BPB
In short: (§1)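 Kinase-panel selectivity profiling of 81 kinases with compound at 1000 nM.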

[2] = target: MARK4 (Homo sapiens, UniProt Q96L34)
In short: as §1

[3] = target: LCK (Homo sapiens, UniProt P06239)
In short: as §1

[4] = target: CDK18/CycY (Homo sapiens, UniProt Q07002)
In short: as §1

[5] = target: T2, TGFβR2 (Homo sapiens, UniProt P37173)
T2 construct: gene TGFBR2
In short: as §1

[6] = target: T3, PKCα (Homo sapiens, UniProt P17252)
T3 construct: gene PRKCA
In short: as §1

[7] = target: ITK (Homo sapiens, UniProt Q08881)
In short: as §1

[8] = target: RIPK2 (Homo sapiens, UniProt O43353)
In short: as §1

[9] = target: TAOK1 (Homo sapiens, UniProt Q7L7X3)
In short: as §1

[10] = target: GAK (Homo sapiens, UniProt O14976)
In short: as §1

[11] = target: T4, Erk7 (Homo sapiens, UniProt Q8TD08)
T4 construct: gene MAPK15
In short: as §1

[12] = target: MAP3K19 (Homo sapiens, UniProt Q56UN5)
In short: as §1

[13] = target: PIK3CA (Homo sapiens, UniProt P42336)
In short: as §1

[14] = target: T5, MLK1 (Homo sapiens, UniProt P80192)
T5 construct: gene MAP3K9
In short: as §1

T4 sequence (Q8TD08 whole entry): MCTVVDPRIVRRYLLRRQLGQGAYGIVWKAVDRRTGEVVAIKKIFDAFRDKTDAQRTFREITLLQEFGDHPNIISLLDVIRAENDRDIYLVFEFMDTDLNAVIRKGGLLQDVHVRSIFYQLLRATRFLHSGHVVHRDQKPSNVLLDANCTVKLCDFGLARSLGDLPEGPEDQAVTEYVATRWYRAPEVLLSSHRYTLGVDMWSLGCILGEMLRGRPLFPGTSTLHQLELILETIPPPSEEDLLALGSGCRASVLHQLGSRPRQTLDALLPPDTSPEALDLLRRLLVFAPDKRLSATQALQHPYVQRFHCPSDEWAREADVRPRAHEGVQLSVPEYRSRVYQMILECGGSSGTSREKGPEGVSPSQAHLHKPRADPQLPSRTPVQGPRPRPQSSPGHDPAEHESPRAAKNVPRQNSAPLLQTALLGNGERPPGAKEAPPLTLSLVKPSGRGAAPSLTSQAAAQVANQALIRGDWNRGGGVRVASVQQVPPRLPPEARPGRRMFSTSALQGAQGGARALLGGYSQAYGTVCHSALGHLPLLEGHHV
Sequence of MAP3K19 (Q56UN5 whole entry): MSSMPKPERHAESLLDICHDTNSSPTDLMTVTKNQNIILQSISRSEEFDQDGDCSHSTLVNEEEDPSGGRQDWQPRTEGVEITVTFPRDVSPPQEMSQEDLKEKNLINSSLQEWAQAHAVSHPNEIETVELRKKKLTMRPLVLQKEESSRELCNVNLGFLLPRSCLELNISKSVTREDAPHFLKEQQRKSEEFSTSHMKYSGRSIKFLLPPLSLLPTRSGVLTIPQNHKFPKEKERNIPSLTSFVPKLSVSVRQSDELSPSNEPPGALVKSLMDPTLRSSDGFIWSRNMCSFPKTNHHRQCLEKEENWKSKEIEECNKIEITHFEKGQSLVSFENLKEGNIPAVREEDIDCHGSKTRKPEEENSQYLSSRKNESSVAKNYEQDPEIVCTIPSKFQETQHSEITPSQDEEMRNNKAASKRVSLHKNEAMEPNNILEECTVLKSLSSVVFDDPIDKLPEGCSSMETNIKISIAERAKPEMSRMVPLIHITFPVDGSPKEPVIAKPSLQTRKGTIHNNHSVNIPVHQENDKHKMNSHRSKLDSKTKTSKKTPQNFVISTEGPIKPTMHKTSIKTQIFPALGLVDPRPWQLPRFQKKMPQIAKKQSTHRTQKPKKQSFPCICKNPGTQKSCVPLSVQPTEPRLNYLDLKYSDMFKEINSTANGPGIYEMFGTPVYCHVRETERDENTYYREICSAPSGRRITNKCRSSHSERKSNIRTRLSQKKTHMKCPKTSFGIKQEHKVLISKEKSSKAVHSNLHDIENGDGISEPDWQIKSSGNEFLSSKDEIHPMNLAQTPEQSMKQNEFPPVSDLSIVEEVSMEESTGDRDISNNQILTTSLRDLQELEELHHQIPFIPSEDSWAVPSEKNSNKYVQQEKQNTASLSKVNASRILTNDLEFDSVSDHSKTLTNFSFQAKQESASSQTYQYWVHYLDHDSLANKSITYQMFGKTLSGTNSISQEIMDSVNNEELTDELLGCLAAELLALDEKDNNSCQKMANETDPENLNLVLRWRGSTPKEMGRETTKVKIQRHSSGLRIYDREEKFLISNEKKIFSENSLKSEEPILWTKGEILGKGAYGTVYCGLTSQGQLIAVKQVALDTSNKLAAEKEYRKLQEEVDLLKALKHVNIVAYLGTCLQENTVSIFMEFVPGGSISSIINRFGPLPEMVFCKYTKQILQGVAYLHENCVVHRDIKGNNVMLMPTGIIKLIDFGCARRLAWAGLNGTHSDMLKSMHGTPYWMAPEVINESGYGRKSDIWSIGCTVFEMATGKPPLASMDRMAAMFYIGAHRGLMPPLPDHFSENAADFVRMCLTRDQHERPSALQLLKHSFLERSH
Sequence of GAK (O14976 whole entry): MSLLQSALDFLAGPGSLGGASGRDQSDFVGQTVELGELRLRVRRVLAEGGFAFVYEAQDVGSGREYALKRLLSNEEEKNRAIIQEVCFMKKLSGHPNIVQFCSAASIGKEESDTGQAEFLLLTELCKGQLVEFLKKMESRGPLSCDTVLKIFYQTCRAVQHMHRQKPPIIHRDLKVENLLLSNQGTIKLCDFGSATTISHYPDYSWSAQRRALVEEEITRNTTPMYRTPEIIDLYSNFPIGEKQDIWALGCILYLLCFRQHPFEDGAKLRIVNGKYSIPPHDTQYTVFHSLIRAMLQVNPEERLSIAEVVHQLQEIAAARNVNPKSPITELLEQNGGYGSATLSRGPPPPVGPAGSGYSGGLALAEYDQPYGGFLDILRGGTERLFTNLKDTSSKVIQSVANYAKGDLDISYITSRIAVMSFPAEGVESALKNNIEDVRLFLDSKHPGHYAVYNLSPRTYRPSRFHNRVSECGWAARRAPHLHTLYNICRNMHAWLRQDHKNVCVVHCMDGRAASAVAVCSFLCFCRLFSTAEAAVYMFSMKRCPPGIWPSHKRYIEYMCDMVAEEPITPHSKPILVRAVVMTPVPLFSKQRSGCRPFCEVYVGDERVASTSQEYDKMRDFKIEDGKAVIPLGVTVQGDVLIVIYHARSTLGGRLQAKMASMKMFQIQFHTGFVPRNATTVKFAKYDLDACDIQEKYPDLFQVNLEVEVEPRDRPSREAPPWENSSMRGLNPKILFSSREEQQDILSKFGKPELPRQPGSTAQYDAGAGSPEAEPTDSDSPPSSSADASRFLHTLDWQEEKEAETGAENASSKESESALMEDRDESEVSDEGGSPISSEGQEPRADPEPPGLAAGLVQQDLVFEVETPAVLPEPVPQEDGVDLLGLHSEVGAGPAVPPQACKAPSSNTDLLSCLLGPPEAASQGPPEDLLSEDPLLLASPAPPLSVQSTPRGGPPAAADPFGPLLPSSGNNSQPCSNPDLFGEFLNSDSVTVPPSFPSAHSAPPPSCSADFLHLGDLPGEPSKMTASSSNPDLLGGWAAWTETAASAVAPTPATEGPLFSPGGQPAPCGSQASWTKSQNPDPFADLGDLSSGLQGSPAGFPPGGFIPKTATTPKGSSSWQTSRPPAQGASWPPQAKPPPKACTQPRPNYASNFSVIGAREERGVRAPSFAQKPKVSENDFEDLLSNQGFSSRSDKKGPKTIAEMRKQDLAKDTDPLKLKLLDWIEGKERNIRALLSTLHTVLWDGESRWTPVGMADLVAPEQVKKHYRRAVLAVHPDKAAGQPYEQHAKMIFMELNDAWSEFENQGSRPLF
Sequence of PIK3CA (P42336 whole entry): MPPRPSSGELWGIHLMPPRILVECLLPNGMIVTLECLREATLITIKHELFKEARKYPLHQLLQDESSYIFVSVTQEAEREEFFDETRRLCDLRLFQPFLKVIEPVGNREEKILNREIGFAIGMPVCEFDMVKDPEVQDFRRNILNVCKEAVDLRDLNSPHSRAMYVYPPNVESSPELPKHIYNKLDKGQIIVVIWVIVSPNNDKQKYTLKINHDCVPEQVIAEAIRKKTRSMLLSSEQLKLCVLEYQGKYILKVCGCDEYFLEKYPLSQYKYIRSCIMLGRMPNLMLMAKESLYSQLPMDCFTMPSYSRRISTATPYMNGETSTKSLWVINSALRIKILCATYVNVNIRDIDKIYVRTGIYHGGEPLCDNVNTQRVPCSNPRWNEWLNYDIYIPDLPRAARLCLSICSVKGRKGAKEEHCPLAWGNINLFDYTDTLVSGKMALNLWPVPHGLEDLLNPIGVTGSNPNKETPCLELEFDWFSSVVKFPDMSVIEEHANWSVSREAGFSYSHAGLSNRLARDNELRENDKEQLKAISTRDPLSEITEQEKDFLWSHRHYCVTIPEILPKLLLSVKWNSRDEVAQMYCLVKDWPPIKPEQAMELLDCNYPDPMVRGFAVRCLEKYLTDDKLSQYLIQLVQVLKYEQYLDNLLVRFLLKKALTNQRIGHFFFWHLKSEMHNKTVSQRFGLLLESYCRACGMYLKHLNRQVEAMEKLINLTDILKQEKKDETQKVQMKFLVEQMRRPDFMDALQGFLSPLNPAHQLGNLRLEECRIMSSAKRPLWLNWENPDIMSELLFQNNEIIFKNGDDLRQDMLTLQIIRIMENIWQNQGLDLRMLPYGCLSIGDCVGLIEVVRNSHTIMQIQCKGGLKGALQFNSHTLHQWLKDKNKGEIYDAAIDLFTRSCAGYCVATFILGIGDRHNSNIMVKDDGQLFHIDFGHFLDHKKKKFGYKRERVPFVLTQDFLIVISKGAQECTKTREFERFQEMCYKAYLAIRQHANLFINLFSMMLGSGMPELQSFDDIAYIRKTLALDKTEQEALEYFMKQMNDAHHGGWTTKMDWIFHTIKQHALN
Sequence of PIK3CA (P27986 whole entry partner): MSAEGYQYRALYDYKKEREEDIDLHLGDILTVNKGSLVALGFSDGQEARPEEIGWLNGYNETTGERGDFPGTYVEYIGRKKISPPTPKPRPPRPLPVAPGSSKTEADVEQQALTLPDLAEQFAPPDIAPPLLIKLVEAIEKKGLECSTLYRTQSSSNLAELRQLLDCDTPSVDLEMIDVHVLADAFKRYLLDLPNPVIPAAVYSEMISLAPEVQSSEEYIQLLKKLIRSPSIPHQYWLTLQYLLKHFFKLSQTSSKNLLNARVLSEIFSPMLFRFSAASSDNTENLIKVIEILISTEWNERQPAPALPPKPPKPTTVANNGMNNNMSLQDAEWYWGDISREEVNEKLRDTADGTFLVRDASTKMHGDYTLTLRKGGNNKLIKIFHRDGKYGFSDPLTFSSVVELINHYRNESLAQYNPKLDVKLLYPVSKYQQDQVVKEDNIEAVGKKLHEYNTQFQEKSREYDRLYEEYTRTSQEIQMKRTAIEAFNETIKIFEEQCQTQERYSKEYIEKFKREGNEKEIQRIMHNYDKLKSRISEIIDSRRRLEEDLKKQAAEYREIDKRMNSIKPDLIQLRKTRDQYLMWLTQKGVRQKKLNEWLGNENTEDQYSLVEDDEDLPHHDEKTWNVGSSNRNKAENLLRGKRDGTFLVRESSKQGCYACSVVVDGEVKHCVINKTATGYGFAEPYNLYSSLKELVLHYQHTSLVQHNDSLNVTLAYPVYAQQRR

Question: How did the inhibition at 1 µM ([1]; replicate Data1) turn out when `Nc1cn2cc(-c3cnc4c(c3)N(C(=O)OC3CCCCC3)CCO4)ccc2n1` [Zharp1-163] was run?
Answer: The inhibition at 1 µM was -0.71%.

Question: And the inhibition at 1 µM ([1]; replicate Data2)?
Answer: The inhibition at 1 µM was 4.66%.

Question: What about the inhibition at 1 µM ([2]; replicate Data1) of the same compound?
Answer: Its inhibition at 1 µM is 14.3%.

Question: And the inhibition at 1 µM ([2]; replicate Data2)?
Answer: The inhibition at 1 µM was 0.49%.

Question: What about the inhibition at 1 µM ([3]; replicate Data1) of the same compound?
Answer: Its inhibition at 1 µM is -16.9%.

Question: And the inhibition at 1 µM ([3]; replicate Data2)?
Answer: Its inhibition at 1 µM is -10.8%.

Question: And the inhibition at 1 µM ([4]; replicate Data1)?
Answer: The inhibition at 1 µM was 4.89%.

Question: What about the inhibition at 1 µM ([4]; replicate Data2) of the same compound?
Answer: The inhibition at 1 µM was -0.64%.

Question: What about the inhibition at 1 µM ([5]; replicate Data1) of the same compound?
Answer: The inhibition at 1 µM was 7.99%.

Question: And the inhibition at 1 µM ([5]; replicate Data2)?
Answer: The inhibition at 1 µM was 3.92%.

Question: And the inhibition at 1 µM ([6]; replicate Data1)?
Answer: The inhibition at 1 µM was -5.43%.

Question: And the inhibition at 1 µM ([6]; replicate Data2)?
Answer: The inhibition at 1 µM was -7.15%.

Question: And the inhibition at 1 µM ([7]; replicate Data1)?
Answer: Its inhibition at 1 µM is 19.4%.

Question: What about the inhibition at 1 µM ([7]; replicate Data2) of the same compound?
Answer: The inhibition at 1 µM was 18.5%.

Question: What about the inhibition at 1 µM ([8]; replicate Data1) of the same compound?
Answer: Its inhibition at 1 µM is -0.35%.

Question: What about the inhibition at 1 µM ([8]; replicate Data2) of the same compound?
Answer: Its inhibition at 1 µM is -3.05%.

Question: And the inhibition at 1 µM ([9]; replicate Data1)?
Answer: Its inhibition at 1 µM is 2.07%.

Question: What about the inhibition at 1 µM ([9]; replicate Data2) of the same compound?
Answer: The inhibition at 1 µM was -4.35%.

Question: And the inhibition at 1 µM ([10]; replicate Data1)?
Answer: Its inhibition at 1 µM is 18.2%.

Question: And the inhibition at 1 µM ([10]; replicate Data2)?
Answer: The inhibition at 1 µM was 19.7%.

Question: What about the inhibition at 1 µM ([11]; replicate Data1) of the same compound?
Answer: Its inhibition at 1 µM is 5.82%.

Question: And the inhibition at 1 µM ([11]; replicate Data2)?
Answer: The inhibition at 1 µM was 0.29%.

Question: And the inhibition at 1 µM ([12]; replicate Data1)?
Answer: The inhibition at 1 µM was -4.19%.

Question: What about the inhibition at 1 µM ([12]; replicate Data2) of the same compound?
Answer: Its inhibition at 1 µM is 10.2%.

Question: What about the inhibition at 1 µM ([13]; replicate Data1) of the same compound?
Answer: Its inhibition at 1 µM is 37.1%.

Question: And the inhibition at 1 µM ([13]; replicate Data2)?
Answer: Its inhibition at 1 µM is 35.8%.

Question: What about the inhibition at 1 µM ([14]; replicate Data1) of the same compound?
Answer: The inhibition at 1 µM was 21.2%.

Question: And the inhibition at 1 µM ([14]; replicate Data2)?
Answer: Its inhibition at 1 µM is 32.7%.
